PMC10531346, “Structural Similarities and Overlapping Activities among Dihydroflavonol 4-Reductase, Flavanone 4-Reductase, and Anthocyanidin Reductase Offer Metabolic Flexibility in the Flavonoid Pathway” (International Journal of Molecular Sciences, 2023)
“And” between values parts separate entries of the source, which are not always exact repeats. Equal entries are not always repeated. Where two headings read alike, the source gives them in different places.

Columns and labels:
SbANR = SbANR activity assay (dihydroflavonols, flavanones, anthocyanidins); type: biochemical, Sorghum bicolor; settings: in words
PvDFRa WT = PvDFRa WT (Panicum virgatum, UniProt A0A8T0SQV2); test: Enzyme kinetic assay, wild-type PvDFRa; type: biochemical; settings: for substrate inhibition at higher substrate concentrations: KI much greater than Km, could not be quantified
Procedure: (§1) Kinetic Assays of PvDFRa, SbDFR3, mutant PvDFRa, and SbFNRs: DFR was purified to the same purity as used in crystallization. Enzymatic assay followed the methodology previously reported with small changes. A solution of 0.1 M potassium phosphate at pH 7.0 was utilized, and substrate concentration was varied from 5 µM to 800 µM. The reaction was initiated with 0.05 mg enzyme in a total reaction volume of 200 µL. […] The reaction proceeded for 15 min. at 25 °C and was terminated by the addition of 600 µL 95:5 (v/v) n-butanol:HCl. […] The reactions were centrifuged for 15 min. at 14,000× g and the supernatant was used to determine product concentrations with a GENESYS™ 10S UV-Vis Spectrophotometer (Thermo Scientific, Waltham, MA, USA). The absorbances of cyanidin delphinidin and pelargonidin were measured at 550, 550, and 528 nm, respectively. The concentrations were determined based on calibrations with reference compounds (Figure S12). […] Data analysis was conducted utilizing GraphPad Prism 8.0.2 using linear regression to model the appropriate model. Error in each data point is shown utilizing the standard deviation.

PvDFRa T143S = PvDFRa T143S (Panicum virgatum, UniProt A0A8T0SQV2, T143S); test: Enzyme kinetic assay, PvDFRa T143S mutant; type: biochemical; settings: relative to wild-type PvDFRa
Procedure: (§2) Site-directed mutagenesis was conducted using primers generated with the QuikChange Primer Design (Agilent Santa Clara, CA USA).
as §1

SbFNR1 = SbFNR1 (Sorghum bicolor, UniProt C5YGL7); test: SbFNR1 activity assay (dihydroflavonols, flavanones, anthocyanidins); type: biochemical; settings: for activity of SbFNR1 against the substrate: in words; for product yield compared to PvDFRa and SbDFR3: flavanones, long incubation
SbDFR3 [1] = biological target: T1, SbDFR3 (Sorghum bicolor, UniProt C5XVF8); test: Enzyme kinetic assay, SbDFR3; settings: NADPH 2 mM
Procedure: as §1

PvDFRa [2] = biological target: T2, PvDFRa (Panicum virgatum, UniProt A0A8T0SQV2); test: Isothermal titration calorimetry, PvDFRa; type: binding; settings: for ∆H / ∆S: ITC, 298 K
Procedure: In order to obtain thermodynamic parameters for the association, isothermal titration calorimetry (ITC) for PvDFRa was performed (Figure S8, Table 2).
Isothermal Titration Calorimetry: Purified PvDFR was dialyzed to a buffer containing 50 mM Bis-Tris, 50 mM Tricine (pH 6.5), 200 mM NaCl and 2.5% (v/v) glycerol. Substrates were dissolved in the same buffer used for enzyme dialysis. Analysis was conducted utilizing a Microcal ITC 200 (Malvern). […] A total of 22 injections were made, each with a volume of 2 uL. Data analysis was conducted utilizing Origin Software 7 and modeled to the appropriate nonlinear regression.

PvDFRa Q242A = PvDFRa Q242A (Panicum virgatum, UniProt A0A8T0SQV2, Q242A); test: Enzyme kinetic assay, PvDFRa Q242A mutant; type: biochemical; settings: for kcat: NADPH 2 mM
Procedure: as §2, §1

SbFNR2 = SbFNR2 activity assay (dihydroflavonols, flavanones, anthocyanidins); type: biochemical, Sorghum bicolor; settings: for activity of SbFNR2 against the substrate: in words; for efficiency relative to the activity of SbANR: anthocyanidin reduction
SbDFR3 [3] = biological target: T1, SbDFR3; test: SbDFR3 activity against anthocyanidins (ANR activity); type: biochemical; settings: anthocyanidin reduction
Procedure: (§3) To measure any overlapping specificity among FNR, DFR, and ANR for anthocyanidins, their activity against cyanidin, pelargonidin, and delphinidin were assayed.
(§4) LC-MS was used to analyze the various flavonoids using a Waters Xevo TQ-MS mass spectrometer interfaced with a Waters Acquity UPLC. […] The chromatographic conditions used were based on. The mobile phase used was a binary gradient of water with 0.1% (v/v) formic acid (Solvent A) and methanol with 0.1% formic acid (Solvent B). The solvent flow rate was 0.2 mL min^-1. and the initial solvent composition was 20% B/80% A and was constant for the first minute following sample injection. Gradient elution was accomplished by increasing the ratio of solvent B to solvent A from 20:80 to 65:35 over 10 min. using a linear gradient, and then increased to 100:0 over the next 4 min. The composition was maintained at 100% B for 5 min., returned to 80%A/20%B over the next 3 min., and held at that ratio for the next 3 min. […]
(§5) Appropriate daughter ions to be used for multiple reaction monitoring (MRM) of (-)-epicatechin were identified by infusing standard and recording spectra. The optimum cone voltage and collision energy of epicatechin were also determined in these infusion experiments. […]

PvDFRa [4] = biological target: T2, PvDFRa; test: PvDFRa activity against anthocyanidins (ANR activity); type: biochemical; settings: anthocyanidin reduction
Procedure: as §3, §4, §5

Row | Structure (SMILES) | activity of SbANR against the substrate (SbANR) | substrate inhibition at higher substrate concentrations (PvDFRa WT) | activity of SbFNR1 against the substrate (SbFNR1) | kcat (SbDFR3 [1]) | Kd (PvDFRa [2]) | ∆H (PvDFRa [2]) | ∆S (PvDFRa [2]) | kcat (PvDFRa Q242A) | activity of SbFNR2 against the substrate (SbFNR2) | also measured
1 | O=C1c2c(O)cc(O)cc2O[C@H](c2ccc(O)cc2)[C@H]1O [DHK, dihydrokaempferol] | no significant activity | substrate inhibition was observed | no significant activity | 0.0101 s⁻¹ and 0.0101 ± 0.00852 s⁻¹ | 26.4 ± 2.26 µM | -6.19 ± 5.54 kcal/mol | 0.854 Cal mol^−1 K^−1 | 0.007835 s⁻¹ | no significant activity | increased catalytic efficiency of T143S mutant (PvDFRa T143S): 1.09 fold; Km (SbDFR3 [1]): 118 ± 22.6 µM; higher catalytic efficiency of Q242A mutant (PvDFRa Q242A; relative to wild-type PvDFRa): 1.7 fold
2 | O=C1c2c(O)cc(O)cc2O[C@H](c2cc(O)c(O)c(O)c2)[C@H]1O [DHM, dihydromyricetin] | no significant activity | substrate inhibition was observed | no significant activity | 0.07733 s⁻¹ | 21.2 ± 3.26 µM | -9.10 ± 2.45 kcal/mol | −9.14 Cal mol^−1 K^−1 | 0.03788 s⁻¹ | no significant activity | 
3 | O=C1c2c(O)cc(O)cc2O[C@H](c2ccc(O)c(O)c2)[C@H]1O [DHQ, dihydroquercetin] | no significant activity | substrate inhibition was observed | no significant activity | 0.06325 s⁻¹ | 16.9 ± 4.35 µM | -10.77 ± 0.18 kcal/mol | −13.7 Cal mol^−1 K^−1 | 0.04285 s⁻¹ | no significant activity | increased catalytic efficiency of T143S mutant (PvDFRa T143S): 3.53 fold
4 | O=C1C[C@@H](c2ccc(O)c(O)c2)Oc2cc(O)cc(O)c21 [Eriodictyol, eriodictyol] | did not display any activity | substrate inhibition occurred |  | 0.00206 ± 0.000183 s⁻¹ | 64.9 ± 11.8 µM | -6.23 ± 0.28 kcal/mol | −1.74 Cal mol^−1 K^−1 |  | did not display any activity | kcat for flavanones, given for PvDFRa (PvDFRa WT; NADPH 2 mM): 0.00206 s⁻¹; Km (PvDFRa WT; NADPH 2 mM, pH 7.0, 25 °C): 246 ± 224 µM; kcat (PvDFRa WT; NADPH 2 mM, pH 7.0, 25 °C): 0.01414 ± 0.00932 s⁻¹; kcat (PvDFRa WT; NADPH 2 mM, pH 7.0, 25 °C, listed as eriodictyol): 0.01414 s⁻¹; product yield compared to PvDFRa and SbDFR3 (SbFNR1): ~ 3%; Km (SbDFR3 [1]): 40.7 ± 31.9 µM; Km (SbDFR3 [1]; read-out: Km): 25.2 µM
5 | O=C1C[C@@H](c2ccc(O)cc2)Oc2cc(O)cc(O)c21 [Naringenin, naringenin] | did not display any activity | substrate inhibition occurred |  |  | 177 ± 25.3 µM | -4.82 ± 0.39 kcal/mol | 0.986 Cal mol^−1 K^−1 |  | did not display any activity | kcat for flavanones, given for PvDFRa (PvDFRa WT; NADPH 2 mM): 0.03473 s⁻¹; kcat (PvDFRa WT; NADPH 2 mM, pH 7.0, 25 °C): 0.05915 s⁻¹; product yield compared to PvDFRa and SbDFR3 (SbFNR1): ~ 3%
6 | Oc1cc(O)c2cc(O)c(-c3ccc(O)c(O)c3)[o+]c2c1 [cyanidin] |  |  |  |  |  |  |  |  |  | efficiency relative to the activity of SbANR (SbFNR1; anthocyanidin reduction): 11.9%; activity as % of the activity of SbANR (SbDFR3 [3]): 0.9%; activity as % of the activity of SbANR (PvDFRa [4]): 0.5%; efficiency relative to the activity of SbANR (SbFNR2): 7.4%
7 | Oc1cc(O)c2cc(O)c(-c3cc(O)c(O)c(O)c3)[o+]c2c1 [delphinidin] | showed activity |  | neither SbFNR1 nor SbFNR2 displayed any activity |  |  |  |  |  | neither SbFNR1 nor SbFNR2 displayed any activity | 
8 | Oc1ccc([C@H]2Oc3cc(O)cc(O)c3C[C@H]2O)cc1 [epiafzelchin] |  |  |  |  |  |  |  |  |  | efficiency relative to the activity of SbANR (SbFNR2): 43%
